Patent publication US8293736B2, “Purine compounds selective for PI3K P110 delta, and methods of use” (F. Hoffmann la Roche AG, priority 2010, dated 2012)
pKi: −log10 of the molar value.

Key:
[1] = target: T1, p110 delta (Homo sapiens, UniProt O00329); assay: PI3K isoform inhibition assay (fluorescence polarization), p110 delta; format: biochemical; settings: Ki apparent, Morrison equation; 25 μM ATP, 10 μM PIP2
T1 construct: purchased Upstate Group, Millipore; Dundee, UK
Method: (§1) Determination of the activity of PI3 kinase activity of Formula I compounds is possible by a number of direct and indirect detection methods.
(§2) PI3K enzymatic activity was assayed by measuring the amount of product phosphatidylinositol 3,4,5-phosphate (PIP3) formed from substrate 4,5 phosphatidylinositol 4,5-phosphate (PIP2) using a fluorescence polarization displacement assay. The decrease in fluorescence polarization of a fluorescent PIP3 probe is measured as it is displaced from a PIP3-binding protein GRP-1 detector by PI3K-catalyzed product. […] The kinase reactions were initiated by the addition of 40 ng/mL p110α/p85α, 300 ng/mL p110β/p85α, 40 ng/mL p110γ, or 40 ng/mL p110δ/p85α (Upstate Group, Millipore; Dundee, UK), and 10 μM PIP2 (Echelon Biosciences) to the wells. […] After 60 minutes of incubation at room temperature to allow equilibration of labeled and unlabeled PIP3 binding, the parallel and perpendicular components of the fluorescence emissions from each sample were measured at an excitation wavelength of 530 nm and an emission wavelength of 590 nm using an Envision fluorescent plate reader with a rhodamine filter (PerkinElmer Life and Analytical Sciences; Wellesley, Mass.). The assay is capable of detecting 0.1-2.0 μM PIP3 product. The Ki apparent values were obtained by fitting the dose-dependent inhibition data to the Morrison equation for tight-binding, competitive inhibitors. Reference: R. A. Copeland, Enzymes. “A Practical Introduction to Structure, Mechanism and Data Analysis”.
The Formula I compound was serially diluted in 100% DMSO. The kinase reaction was incubated for 1 h at room temperature, and the reaction was terminated by the addition of PBS. IC50 values were subsequently determined using sigmoidal dose-response curve fit (variable slope). […]

[2] = target: T2, p110 alpha (Homo sapiens, UniProt P42336); assay: PI3K isoform inhibition assay (fluorescence polarization), p110 alpha; format: biochemical; settings: delta/alpha selectivity ratio
T2 construct: purchased Upstate Group, Millipore; Dundee, UK
T2 sequence (P42336 whole entry, species assumed, canonical isoform): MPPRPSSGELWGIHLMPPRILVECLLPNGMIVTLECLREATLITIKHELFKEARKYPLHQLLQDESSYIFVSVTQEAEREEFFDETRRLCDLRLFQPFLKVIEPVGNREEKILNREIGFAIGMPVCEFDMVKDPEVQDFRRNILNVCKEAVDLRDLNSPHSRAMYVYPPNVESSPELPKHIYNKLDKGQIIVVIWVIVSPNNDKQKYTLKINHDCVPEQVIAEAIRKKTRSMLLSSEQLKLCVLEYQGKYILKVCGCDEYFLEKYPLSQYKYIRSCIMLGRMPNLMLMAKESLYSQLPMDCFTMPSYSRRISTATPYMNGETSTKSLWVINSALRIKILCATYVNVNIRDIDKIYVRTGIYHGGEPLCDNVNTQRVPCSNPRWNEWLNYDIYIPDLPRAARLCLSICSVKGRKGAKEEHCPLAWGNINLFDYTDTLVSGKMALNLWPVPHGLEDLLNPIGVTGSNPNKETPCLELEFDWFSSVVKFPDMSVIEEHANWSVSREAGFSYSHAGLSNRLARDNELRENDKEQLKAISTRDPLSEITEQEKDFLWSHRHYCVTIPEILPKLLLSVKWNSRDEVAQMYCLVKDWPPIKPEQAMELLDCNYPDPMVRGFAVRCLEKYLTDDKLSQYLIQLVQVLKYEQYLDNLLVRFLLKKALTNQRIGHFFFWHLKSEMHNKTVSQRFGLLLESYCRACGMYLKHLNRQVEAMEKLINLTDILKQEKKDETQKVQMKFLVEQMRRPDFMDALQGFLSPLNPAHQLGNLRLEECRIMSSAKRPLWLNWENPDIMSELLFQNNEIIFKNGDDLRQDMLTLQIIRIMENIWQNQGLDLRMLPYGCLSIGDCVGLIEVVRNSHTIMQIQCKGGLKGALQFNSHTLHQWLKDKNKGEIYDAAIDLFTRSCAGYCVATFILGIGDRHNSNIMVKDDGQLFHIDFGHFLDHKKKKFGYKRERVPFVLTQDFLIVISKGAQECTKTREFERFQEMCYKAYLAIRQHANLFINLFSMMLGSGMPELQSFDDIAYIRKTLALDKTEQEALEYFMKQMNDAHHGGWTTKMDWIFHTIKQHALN
T2 sequence (P27986 whole entry partner, species assumed, canonical isoform): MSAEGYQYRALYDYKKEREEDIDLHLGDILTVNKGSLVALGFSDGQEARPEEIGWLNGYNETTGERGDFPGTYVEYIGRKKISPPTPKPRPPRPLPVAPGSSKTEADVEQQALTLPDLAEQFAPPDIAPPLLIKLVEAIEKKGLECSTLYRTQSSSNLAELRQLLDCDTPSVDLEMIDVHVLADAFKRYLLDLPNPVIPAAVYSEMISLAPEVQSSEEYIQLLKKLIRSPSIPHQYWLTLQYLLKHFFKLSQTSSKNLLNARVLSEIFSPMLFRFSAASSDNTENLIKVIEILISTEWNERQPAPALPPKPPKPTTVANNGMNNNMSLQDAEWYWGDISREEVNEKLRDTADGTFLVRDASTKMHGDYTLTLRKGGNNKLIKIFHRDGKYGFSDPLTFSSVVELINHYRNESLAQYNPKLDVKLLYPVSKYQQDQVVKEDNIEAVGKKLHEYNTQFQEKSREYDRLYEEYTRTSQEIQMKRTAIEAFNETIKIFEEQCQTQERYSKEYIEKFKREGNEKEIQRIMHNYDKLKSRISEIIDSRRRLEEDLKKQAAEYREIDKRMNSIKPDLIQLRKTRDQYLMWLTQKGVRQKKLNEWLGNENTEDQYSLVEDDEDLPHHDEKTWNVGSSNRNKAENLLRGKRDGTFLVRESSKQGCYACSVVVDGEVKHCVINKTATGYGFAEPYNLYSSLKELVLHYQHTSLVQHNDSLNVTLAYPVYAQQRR
Method: as §1, §2
The same protocol may be used to establish Ki values for p110α (alpha) PI3K binding.
The four Class I PI 3-kinases are cloned into baculovirus vectors as follows: […]

T1 sequence (O00329 whole entry, canonical isoform): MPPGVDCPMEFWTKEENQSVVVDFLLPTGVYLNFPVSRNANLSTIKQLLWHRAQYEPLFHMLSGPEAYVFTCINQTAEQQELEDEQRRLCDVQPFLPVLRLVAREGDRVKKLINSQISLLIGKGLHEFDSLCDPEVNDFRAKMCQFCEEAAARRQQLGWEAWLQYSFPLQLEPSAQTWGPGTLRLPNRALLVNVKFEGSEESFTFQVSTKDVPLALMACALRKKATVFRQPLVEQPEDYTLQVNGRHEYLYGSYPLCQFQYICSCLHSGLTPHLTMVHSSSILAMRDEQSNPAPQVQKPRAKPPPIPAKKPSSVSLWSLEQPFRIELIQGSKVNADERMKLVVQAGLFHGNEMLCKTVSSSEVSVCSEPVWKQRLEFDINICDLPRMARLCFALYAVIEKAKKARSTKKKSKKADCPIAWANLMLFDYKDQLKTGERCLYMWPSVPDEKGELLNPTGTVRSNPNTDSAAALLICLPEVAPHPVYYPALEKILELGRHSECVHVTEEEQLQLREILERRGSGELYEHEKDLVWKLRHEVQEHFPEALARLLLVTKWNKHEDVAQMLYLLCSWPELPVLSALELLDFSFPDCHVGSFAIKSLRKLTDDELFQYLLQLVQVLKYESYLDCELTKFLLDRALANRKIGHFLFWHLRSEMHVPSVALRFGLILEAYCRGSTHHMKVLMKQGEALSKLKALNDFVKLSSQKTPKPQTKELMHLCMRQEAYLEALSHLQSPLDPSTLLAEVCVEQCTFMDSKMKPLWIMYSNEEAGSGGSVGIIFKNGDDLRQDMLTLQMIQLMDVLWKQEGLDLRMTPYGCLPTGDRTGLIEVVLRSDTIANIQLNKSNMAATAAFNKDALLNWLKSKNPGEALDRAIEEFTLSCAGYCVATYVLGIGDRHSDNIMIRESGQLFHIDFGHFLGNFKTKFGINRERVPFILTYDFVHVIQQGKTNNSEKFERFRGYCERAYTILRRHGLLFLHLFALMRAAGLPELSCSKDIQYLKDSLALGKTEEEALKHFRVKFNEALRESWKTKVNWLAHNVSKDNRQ
T1 sequence (P27986 whole entry partner, canonical isoform): as the sequence (P27986 whole entry partner, species assumed, canonical isoform) above

pKi [1] | Ki p110 alpha/ Ki p110 delta [2] | Compound
9.08 | 100 | CCc1nc2ccccc2n1-c1nc(N2CCOCC2)c2nc(OC3CN(C(=O)C4(C)CC4)C3)n(C)c2n1 [Compound 145, (3-(2-(2-ethyl-1H-benzo [d]imidazol-1-yl)-9-methyl-6-morpholino-9H-purin-8-yloxy)azetidin-1-yl)(1-methylcyclopropyl)methanone]
8.35 | 41 | CCc1nc2ccccc2n1-c1nc(N2CCOCC2)c2nc(OC3CN(C(=O)C4(F)CC4)C3)n(C)c2n1 [Compound 146, (3-(2-(2-ethyl-1H-benzo[d]imidazol-1-yl)-9-methyl-6-morpholino-9H-purin-8-yloxy)azetidin-1-yl)(1-fluorocyclopropyl)methanone]
8.63 | 72 | CCc1nc2ccccc2n1-c1nc(N2CCOCC2)c2nc(OC3CN(C(=O)C(C)(C)F)C3)n(C)c2n1 [Compound 147, 1-(3-(2-(2-ethyl-1H-benzo[d]imidazol-1-yl)-9-methyl-6-morpholino-9H-purin-8-yloxy)azetidin-1-yl)-2-fluoro-2-methylpropan-1-one]
9.47 | 259 | CCc1nc2ccccc2n1-c1nc(N2CCOCC2)c2nc(OC3CN(C(=O)C4CC4)C3C)n(C)c2n1 (centres unmarked) [Compound 148, cyclopropyl(3-(2-(2-ethyl-1H-benzo[d]imidazol-1-yl)-9-methyl-6-morpholino-9H-purin-8-yloxy)-2-methylazetidin-1-yl)methanone]
9.35 | 277 | CCc1nc2ccccc2n1-c1nc(N2CCOCC2)c2nc(OC3CN(C(=O)C(C)C)C3C)n(C)c2n1 (centres unmarked) [Compound 149, 1-(3-(2-(2-ethyl-1H-benzo [d]imidazol-1-yl)-9-methyl-6-morpholino-9H-purin-8-yloxy)-2-methylazetidin-1-yl)-2-methylpropan-1-one]
8.54 | 30 | CCc1nc2ccccc2n1-c1nc(N2CCOCC2)c2nc(OC3CN(C(=O)C4(C#N)CC4)C3)n(C)c2n1 [Compound 150, 1-(3-(2-(2-ethyl-1H-benzo [d]imidazol-1-yl)-9-methyl-6-morpholino-9H-purin-8-yloxy)azetidine-1-carbonyl) cyclopropanecarbonitrile]
9.15 | 107 | CCc1nc2ccccc2n1-c1nc(N2CCOCC2)c2nc(OC3CN(C(=O)[C@H]4CC45CCC5)C3)n(C)c2n1 [Compound 152, (S)-(3-(2-(2-ethyl-1H-benzo [d]imidazol-1-yl)-9-methyl-6-morpholino-9H-purin-8-yloxy)azetidin-1-yl) (spiro[2.3]hexan-1-yl) methanone]
9.13 | 159 | CCc1nc2ccccc2n1-c1nc(N2CCOCC2)c2nc(OC3CN(C(=O)[C@@H]4CC45CCC5)C3)n(C)c2n1 [Compound 153, (R)-(3-(2-(2-ethyl-1H-benzo [d]imidazol-l-yl)-9-methyl-6-morpholino-9H-purin-8-yloxy)azetidin-1-yl) (spiro[2.3]hexan-1-yl) methanone]
9.24 | 102 | CCc1nc2ccccc2n1-c1nc(N2CCOCC2)c2nc(OC3CN(C(=O)C4C[C@H]4F)C3)n(C)c2n1 (stereo partly drawn) [Compound 154, (3-(2-(2-ethyl-1H-benzo [d]imidazol-1-yl)-9-methyl-6-morpholino-9H-purin-8-yloxy)azetidin-1-yl)((2R)-2-fluorocyclopropyl)methanone]
9.49 | 91 | CCc1nc2ccccc2n1-c1nc(N2CCOCC2)c2nc(OC3CN(C(=O)C4(C(F)(F)F)CC4)C3)n(C)c2n1 [Compound 155, (3-(2-(2-ethyl-1H-benzo[d]imidazol-1-yl)-9-methyl-6-morpholino-9H-purin-8-yloxy)azetidin-1-yl)(1-(trifluoromethyl)cyclopropyl) methanone]
9.27 | 76 | CCc1nc2ccccc2n1-c1nc(N2CCOCC2)c2nc(OC3CN(C(=O)C4(COC)CC4)C3)n(C)c2n1 [Compound 156, (3-(2-(2-ethyl-1H-benzo[d]imidazol-1-yl)-9-methyl-6-morpholino-9H-purin-8-yloxy)azetidin-1-yl)(1-(methoxymethyl)cyclopropyl) methanone]
9.34 | 104 | CCc1nc2ccccc2n1-c1nc(N2CCOCC2)c2nc(OC3CN(C(=O)C4C[C@@H]4F)C3)n(C)c2n1 (stereo partly drawn) [Compound 157, (3-(2-(2-ethyl-1H-benzo[d]imidazol-1-yl)-9-methyl-6-morpholino-9H-purin-8-yloxy)azetidin-1-yl)((2S)-2-fluorocyclopropyl)methanone]

Further lines, the molecule ahead of its results:

Compound | pKi [1] | Ki p110 alpha/ Ki p110 delta [2]
CCc1nc2ccccc2n1-c1nc(N2CCOCC2)c2nc(OC3CN(C(=O)[C@H](C)O)C3)n(C)c2n1 [Compound 129, (S)-1-(3-(2-(2-ethyl-1H-benzo[d]imidazol-1-yl)-9-methyl-6-morpholino-9H-purin-8-yloxy)azetidin-1-yl)-2-hydroxypropan-1-one] | 8.85 | 87
CC(C)C(=O)N1CC(Oc2nc3c(N4CCOCC4)nc(-n4c(C(C)(F)F)nc5ccccc54)nc3n2C)C1 [Compound 132, 1-(3-(2-(2-(1,1-difluoroethyl)-1H-benzo[d]imidazol-1-yl)-9-methyl-6-morpholino-9H-purin-8-yloxy)azetidin-1-yl)-2-methylpropan-1-one] | 9.03 | 31
Cn1c(OC2CN(C3CCS(=O)(=O)CC3)C2)nc2c(N3CCOCC3)nc(-n3c(CCO)nc4ccccc43)nc21 [Compound 136, 2-(1-(9-methyl-6-morpholino-8-(1-(1,1-dioxo-tetrahydro-2H-thiopyran-4-yl)azetidin-3-yloxy)-9H-purin-2-yl)-1H-benzo[d]imidazol-2-yl)ethanol] | 8.31 | 90
CN(C)c1nc2ccccc2n1-c1nc(N2CCOCC2)c2nc(OC3CN(C4CCS(=O)(=O)CC4)C3)n(C)c2n1 [Compound 137, N,N-dimethyl-1-(9-methyl-6-morpholino-8-(1-(1,1-dioxo-tetrahydro-2H-thiopyran-4-yl)azetidin-3-yloxy)-9H-purin-2-yl)-1H-benzo[d] imidazol-2-amine] | 8.33 | 121
CC(C)C(=O)N1CC(Oc2nc3c(N4CCOCC4)nc(-n4c(CCO)nc5ccccc54)nc3n2C)C1 [Compound 138, 1-(3-(2-(2-(2-hydroxyethyl)-1H-benzo[d]imidazol-1-yl)-9-methyl-6-morpholino-9H-purin-8-yloxy)azetidin-1-yl)-2-methylpropan-1-one] | 8.41 | 68
Cn1c(OC2CN(C3CCS(=O)(=O)CC3)C2)nc2c(N3CCOCC3)nc(-n3c(C(C)(F)F)nc4ccccc43)nc21 [Compound 139, 4-(2-(2-(1,1-difluoroethyl)-1H-benzo[d]imidazol-1-yl)-9-methyl-8-(1-(1,1-dioxo-tetrahydro-2H-thiopyran-4-yl)azetidin-3-yloxy)-9H-purin-6-yl)morpholine] | 8.85 | 59
CO[C@H](C)c1nc2ccccc2n1-c1nc(N2CCOCC2)c2nc(OC3CN(C(=O)C(C)C)C3)n(C)c2n1 [Compound 140, (R)-1-(3-(2-(2-(1-methoxyethyl)-1H-benzo[d]imidazol-1-yl)-9-methyl-6-morpholino-9H-purin-8-yloxy)azetidin-1-yl)-2-methylpropan-1-one] | 8.82 | 64
CO[C@@H](C)c1nc2ccccc2n1-c1nc(N2CCOCC2)c2nc(OC3CN(C(=O)C(C)C)C3)n(C)c2n1 [Compound 141, (S)-1-(3-(2-(2-(1-methoxyethyl)-1H-benzo[d]imidazol-1-yl)-9-methyl-6-morpholino-9H-purin-8-yloxy)azetidin-1-yl)-2-methylpropan-1-one] | 9.08 | 54
CO[C@H](C)c1nc2ccccc2n1-c1nc(N2CCOCC2)c2nc(OC3CN(C4CCS(=O)(=O)CC4)C3)n(C)c2n1 [Compound 142, (R)-4-(2-(2-(1-methoxyethyl)-1H-benzo[d]imidazol-1-yl)-9-methyl-8-(1-(1,1-dioxo-tetrahydro-2H-thiopyran-4-yl)azetidin-3-yloxy)-9H-purin-6-yl)morpholine] | 8.79 | 96
CO[C@@H](C)c1nc2ccccc2n1-c1nc(N2CCOCC2)c2nc(OC3CN(C4CCS(=O)(=O)CC4)C3)n(C)c2n1 [Compound 143, (S)-4-(2-(2-(1-methoxyethyl)-1H-benzo[d]imidazol-1-yl)-9-methyl-8-(1-(1,1-dioxo-tetrahydro-2H-thiopyran-4-yl)azetidin-3-yloxy)-9H-purin-6-yl)morpholine] | 8.80 | 50
